This note sets out measurements from ChEMBL document CHEMBL4145687, “Novel Scaffolds for Dual Specificity Tyrosine-Phosphorylation-Regulated Kinase (DYRK1A) Inhibitors” (J Med Chem, 2018).

For test [1], the target named is T1, Dual specificity tyrosine-phosphorylation-regulated kinase 1A (Homo sapiens, UniProt Q13627). Kind of test: Inhibition of DYRK1A (unknown origin) using DYRKtide as substrate by ATP regenerative NADH consuming assay.
In test [2] the target is T1, Dual specificity tyrosine-phosphorylation-regulated kinase 1A. The test can be described thus: Inhibition of EGFP-tagged DYRK1A (unknown origin) expressed in human NCI-H1299 cells expressing FLAG-tagged tau assessed as reduction in tau T212 phosphorylation at 1 to 10 uM incubated for 2 hrs by Western blot analysis. Format: cell-based. Background: A western blot detects proteins with antibodies after separation by electrophoresis.

Test [3] addresses Dual specificity protein kinase CLK2 (Homo sapiens) (UniProt P49760). Kind of test: Inhibition of human CLK2 expressed in bacterial expression system at 10 uM.
The target in test [4] is Dual specificity protein kinase CLK3 (Homo sapiens) (UniProt P49761). The test can be described thus: Inhibition of human CLK3 expressed in bacterial expression system at 1 uM.
Chain of Dual specificity protein kinase CLK3 (Homo sapiens) (P49761 whole entry, looked up): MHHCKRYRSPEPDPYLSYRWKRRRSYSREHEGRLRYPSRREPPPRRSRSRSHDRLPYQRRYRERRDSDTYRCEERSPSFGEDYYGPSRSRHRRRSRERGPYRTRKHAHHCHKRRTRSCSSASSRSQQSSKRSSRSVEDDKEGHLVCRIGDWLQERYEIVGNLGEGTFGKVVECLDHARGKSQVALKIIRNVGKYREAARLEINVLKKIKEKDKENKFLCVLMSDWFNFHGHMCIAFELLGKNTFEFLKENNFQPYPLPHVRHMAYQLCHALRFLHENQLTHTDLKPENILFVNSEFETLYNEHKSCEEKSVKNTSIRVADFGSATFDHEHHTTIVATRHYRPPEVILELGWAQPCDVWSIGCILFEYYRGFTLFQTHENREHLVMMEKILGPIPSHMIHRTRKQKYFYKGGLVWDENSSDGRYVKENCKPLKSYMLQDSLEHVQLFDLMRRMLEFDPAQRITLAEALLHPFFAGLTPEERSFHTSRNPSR
For test [5], the target named is T1, Dual specificity tyrosine-phosphorylation-regulated kinase 1A. The test can be described thus: Inhibition of human DYRK1A expressed in mammalian expression system at 1 uM.
For test [6] the target is unchanged. Kind of test: Inhibition of human DYRK1A expressed in HEK293 cells assessed as […] at 0.1 uM by NFAT response element-driven luciferase reporter gene assay relative to harmine. Format: cell-based. For orientation: Reporter assays use an easily measured gene product as a stand-in for the process of interest.
Test [7] shares this target. The test can be described thus: Inhibition of DYRK1A (unknown origin) assessed as remaining enzyme activity at 20 uM using DYRKtide as substrate by ATP regenerative NADH consuming assay.
For test [8], the target named is Dual specificity tyrosine-phosphorylation-regulated kinase 1B (Homo sapiens) (UniProt Q9Y463). Kind of test: Inhibition of human DYRK1B expressed in bacterial expression system at 1 uM.
Chain of Dual specificity tyrosine-phosphorylation-regulated kinase 1B (Homo sapiens) (Q9Y463 whole entry, looked up): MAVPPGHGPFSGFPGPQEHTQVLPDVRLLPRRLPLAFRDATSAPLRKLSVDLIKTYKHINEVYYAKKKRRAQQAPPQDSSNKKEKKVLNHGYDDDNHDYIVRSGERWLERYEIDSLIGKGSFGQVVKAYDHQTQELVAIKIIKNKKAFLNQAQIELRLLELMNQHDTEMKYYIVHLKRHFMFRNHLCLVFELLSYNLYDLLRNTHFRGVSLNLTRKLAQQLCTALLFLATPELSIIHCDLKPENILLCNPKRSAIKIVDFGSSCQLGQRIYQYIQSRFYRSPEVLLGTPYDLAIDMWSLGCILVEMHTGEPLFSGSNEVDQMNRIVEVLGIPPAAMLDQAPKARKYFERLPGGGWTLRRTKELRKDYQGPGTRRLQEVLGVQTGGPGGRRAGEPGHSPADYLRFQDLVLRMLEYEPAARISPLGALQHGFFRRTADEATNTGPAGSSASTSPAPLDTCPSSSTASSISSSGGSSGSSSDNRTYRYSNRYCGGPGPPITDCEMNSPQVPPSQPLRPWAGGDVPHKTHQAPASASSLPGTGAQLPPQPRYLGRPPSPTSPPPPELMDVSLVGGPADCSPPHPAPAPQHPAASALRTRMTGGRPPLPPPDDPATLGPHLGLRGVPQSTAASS
Test [9] has as its target T1, Dual specificity tyrosine-phosphorylation-regulated kinase 1A. The test can be described thus: Inhibition of human DYRK1A expressed in HEK293 cells assessed as compound concentration causing 1.5 fold […] by NFAT response element-driven luciferase reporter gene assay relative to basal level. The class given is cell-based.
Test [10] concerns the target Glycogen synthase kinase-3 beta (Homo sapiens) (UniProt P49841). The test can be described thus: Inhibition of human GSK3beta expressed in mammalian expression system at 1 uM.
The target of test [11] is Phosphatidylinositol 4,5-bisphosphate 3-kinase catalytic subunit gamma isoform (Homo sapiens) (UniProt P48736). The test can be described thus: Inhibition of human PIK3CG expressed in mammalian expression system at 1 uM.
In test [12] the target is Glycogen synthase kinase-3 alpha (Homo sapiens) (UniProt P49840). The test can be described thus: Inhibition of human GSK3A expressed in bacterial expression system at 1 uM.
Chain of Glycogen synthase kinase-3 alpha (Homo sapiens) (P49840 2-483 limits assumed): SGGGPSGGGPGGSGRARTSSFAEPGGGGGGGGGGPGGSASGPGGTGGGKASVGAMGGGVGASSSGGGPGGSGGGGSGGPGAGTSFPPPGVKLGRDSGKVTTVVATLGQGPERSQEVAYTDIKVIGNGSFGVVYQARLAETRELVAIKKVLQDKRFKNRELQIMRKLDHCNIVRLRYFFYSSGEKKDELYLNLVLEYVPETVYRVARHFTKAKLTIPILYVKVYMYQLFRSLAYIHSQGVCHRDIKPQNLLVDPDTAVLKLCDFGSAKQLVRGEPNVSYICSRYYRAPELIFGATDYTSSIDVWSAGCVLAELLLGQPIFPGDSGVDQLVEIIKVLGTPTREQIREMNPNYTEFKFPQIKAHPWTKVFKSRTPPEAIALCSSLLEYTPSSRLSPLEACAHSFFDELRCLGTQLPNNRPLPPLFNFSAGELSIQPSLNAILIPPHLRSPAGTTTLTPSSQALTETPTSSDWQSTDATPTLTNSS
Test [13] has as its target Serine/threonine-protein kinase mTOR (Homo sapiens) (UniProt P42345). The test can be described thus: Inhibition of human mTOR expressed in mammalian expression system at 10 uM.
Test [14] addresses Dual specificity protein kinase CLK1 (Homo sapiens) (UniProt P49759). Kind of test: Inhibition of human CLK1 expressed in bacterial expression system at 1 uM.
For test [15], the target named is Phosphatidylinositol 4-kinase beta (Homo sapiens) (UniProt Q9UBF8). Kind of test: Inhibition of human PIK4CB expressed in mammalian expression system at 1 uM.
Chain of Phosphatidylinositol 4-kinase beta (Homo sapiens) (Q9UBF8 2-816 limits assumed): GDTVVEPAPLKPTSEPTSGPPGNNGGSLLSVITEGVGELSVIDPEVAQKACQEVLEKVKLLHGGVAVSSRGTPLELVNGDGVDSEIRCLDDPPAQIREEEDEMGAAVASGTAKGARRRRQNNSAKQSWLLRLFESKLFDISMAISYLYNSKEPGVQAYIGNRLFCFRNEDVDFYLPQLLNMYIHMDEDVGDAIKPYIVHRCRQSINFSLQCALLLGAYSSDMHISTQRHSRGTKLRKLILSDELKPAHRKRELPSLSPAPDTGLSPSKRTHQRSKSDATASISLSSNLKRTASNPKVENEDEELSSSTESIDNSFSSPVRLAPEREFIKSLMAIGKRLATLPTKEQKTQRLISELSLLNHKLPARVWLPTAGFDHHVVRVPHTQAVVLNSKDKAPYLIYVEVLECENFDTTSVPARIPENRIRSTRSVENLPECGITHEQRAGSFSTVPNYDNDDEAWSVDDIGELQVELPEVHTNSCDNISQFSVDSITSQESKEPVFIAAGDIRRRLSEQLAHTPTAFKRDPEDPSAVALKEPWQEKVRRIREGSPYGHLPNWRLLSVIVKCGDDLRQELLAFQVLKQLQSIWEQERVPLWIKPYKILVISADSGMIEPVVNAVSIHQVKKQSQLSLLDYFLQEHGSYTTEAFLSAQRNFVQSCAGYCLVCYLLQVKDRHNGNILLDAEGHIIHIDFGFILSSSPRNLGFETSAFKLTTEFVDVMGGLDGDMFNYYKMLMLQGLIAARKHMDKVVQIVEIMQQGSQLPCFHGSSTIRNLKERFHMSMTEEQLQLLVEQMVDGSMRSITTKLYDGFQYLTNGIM
Test [16] deals with Tyrosine-protein kinase ABL1 (Homo sapiens) (UniProt P00519). The test can be described thus: Inhibition of human ABL1 at 10 uM.
Test [17] concerns the target Platelet-derived growth factor receptor beta (Homo sapiens) (UniProt P09619). The test can be described thus: Inhibition of human PDGFRbeta expressed in bacterial expression system at 10 uM.
The target in test [18] is Platelet-derived growth factor receptor alpha (Homo sapiens) (UniProt P16234). Kind of test: Inhibition of human PDGFRalpha expressed in mammalian expression system at 10 uM.
Chain of Platelet-derived growth factor receptor alpha (Homo sapiens) (P16234 whole entry): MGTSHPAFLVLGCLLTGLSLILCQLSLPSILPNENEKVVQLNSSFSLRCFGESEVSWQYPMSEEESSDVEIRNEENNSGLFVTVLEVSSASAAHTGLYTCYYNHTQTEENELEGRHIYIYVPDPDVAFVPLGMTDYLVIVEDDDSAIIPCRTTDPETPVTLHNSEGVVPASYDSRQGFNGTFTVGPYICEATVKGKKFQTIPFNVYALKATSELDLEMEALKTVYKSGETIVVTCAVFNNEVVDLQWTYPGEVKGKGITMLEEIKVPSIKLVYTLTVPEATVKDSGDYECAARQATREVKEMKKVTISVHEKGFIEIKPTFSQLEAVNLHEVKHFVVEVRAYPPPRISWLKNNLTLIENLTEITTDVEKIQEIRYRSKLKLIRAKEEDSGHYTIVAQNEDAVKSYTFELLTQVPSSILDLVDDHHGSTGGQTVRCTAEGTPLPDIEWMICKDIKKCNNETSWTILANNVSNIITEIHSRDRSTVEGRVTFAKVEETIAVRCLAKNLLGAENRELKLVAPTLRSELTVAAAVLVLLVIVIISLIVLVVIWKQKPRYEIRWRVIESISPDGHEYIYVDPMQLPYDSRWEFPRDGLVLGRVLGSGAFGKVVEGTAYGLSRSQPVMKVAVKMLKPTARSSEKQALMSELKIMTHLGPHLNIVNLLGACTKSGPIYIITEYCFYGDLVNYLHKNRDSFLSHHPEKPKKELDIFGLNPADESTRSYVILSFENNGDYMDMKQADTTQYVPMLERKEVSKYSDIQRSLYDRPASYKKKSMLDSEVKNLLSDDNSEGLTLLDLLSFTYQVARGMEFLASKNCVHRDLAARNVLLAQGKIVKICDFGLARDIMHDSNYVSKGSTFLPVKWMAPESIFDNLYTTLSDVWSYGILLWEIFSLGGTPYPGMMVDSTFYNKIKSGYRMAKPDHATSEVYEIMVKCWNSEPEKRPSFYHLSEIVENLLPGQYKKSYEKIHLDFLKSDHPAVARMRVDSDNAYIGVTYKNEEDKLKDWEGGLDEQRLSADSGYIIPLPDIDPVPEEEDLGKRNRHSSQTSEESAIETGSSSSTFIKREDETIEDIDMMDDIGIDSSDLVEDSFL
Test [19] addresses Cyclin-dependent kinase 7 (Homo sapiens) (UniProt P50613). The test can be described thus: Inhibition of human CDK7 expressed in mammalian expression system at 10 uM.
Test [20] addresses Glycogen synthase kinase-3 beta (Homo sapiens) (UniProt P49841). The test can be described thus: Inhibition of human GSK3beta expressed in mammalian expression system at 10 uM.
Test [21] concerns the target Homeodomain-interacting protein kinase 1 (Homo sapiens) (UniProt Q86Z02). The test can be described thus: Inhibition of human HIPK1 expressed in mammalian expression system at 10 uM.
Test [22] addresses Homeodomain-interacting protein kinase 2 (Homo sapiens) (UniProt Q9H2X6). The test can be described thus: Inhibition of human HIPK2 expressed in mammalian expression system at 10 uM.
Test [23] deals with T2, Serine/threonine-protein kinase 17A (Homo sapiens) (UniProt Q9UEE5).
T2 sequence (whole entry): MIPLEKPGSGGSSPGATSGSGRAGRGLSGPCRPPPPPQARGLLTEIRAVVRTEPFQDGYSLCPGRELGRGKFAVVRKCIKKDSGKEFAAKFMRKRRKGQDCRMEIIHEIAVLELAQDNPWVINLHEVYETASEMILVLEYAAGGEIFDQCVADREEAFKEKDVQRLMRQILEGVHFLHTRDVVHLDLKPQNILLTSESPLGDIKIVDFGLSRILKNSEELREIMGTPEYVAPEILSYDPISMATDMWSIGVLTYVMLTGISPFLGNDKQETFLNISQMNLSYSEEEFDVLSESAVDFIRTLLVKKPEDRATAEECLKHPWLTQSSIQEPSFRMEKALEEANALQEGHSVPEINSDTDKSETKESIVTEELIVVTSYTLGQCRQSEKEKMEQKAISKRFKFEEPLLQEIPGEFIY
The test can be described thus: Inhibition of human DRAK1 expressed in bacterial expression system at 10 uM.

Test [24] addresses T1, Dual specificity tyrosine-phosphorylation-regulated kinase 1A. Kind of test: Inhibition of human DYRK1A expressed in HEK293 cells assessed as […] at 1 uM by NFAT response element-driven luciferase reporter gene assay relative to harmine. Format: cell-based.
Test [25] has as its target Mitogen-activated protein kinase 7 (Homo sapiens) (UniProt Q13164). Kind of test: Inhibition of human ERK5 expressed in bacterial expression system at 10 uM.
The target of test [26] is T3, Serine/threonine-protein kinase 17B (Homo sapiens) (UniProt O94768).
T3 sequence (whole entry): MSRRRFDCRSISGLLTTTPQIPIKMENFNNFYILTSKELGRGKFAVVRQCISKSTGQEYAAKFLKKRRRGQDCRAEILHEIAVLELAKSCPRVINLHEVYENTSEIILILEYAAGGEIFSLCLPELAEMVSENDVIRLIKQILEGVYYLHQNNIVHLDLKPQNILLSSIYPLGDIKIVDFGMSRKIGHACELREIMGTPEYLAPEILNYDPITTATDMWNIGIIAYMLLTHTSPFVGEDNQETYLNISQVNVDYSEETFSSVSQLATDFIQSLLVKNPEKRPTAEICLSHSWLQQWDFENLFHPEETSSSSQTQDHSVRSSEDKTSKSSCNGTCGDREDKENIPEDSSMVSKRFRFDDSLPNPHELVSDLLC
Kind of test: Inhibition of human DRAK2 expressed in bacterial expression system at 10 uM.

Active and inactive are the calls of the source. The calls are words filed in the database; no cut-off is given here.

Chain of Dual specificity protein kinase CLK2 (Homo sapiens) (P49760 whole entry, looked up): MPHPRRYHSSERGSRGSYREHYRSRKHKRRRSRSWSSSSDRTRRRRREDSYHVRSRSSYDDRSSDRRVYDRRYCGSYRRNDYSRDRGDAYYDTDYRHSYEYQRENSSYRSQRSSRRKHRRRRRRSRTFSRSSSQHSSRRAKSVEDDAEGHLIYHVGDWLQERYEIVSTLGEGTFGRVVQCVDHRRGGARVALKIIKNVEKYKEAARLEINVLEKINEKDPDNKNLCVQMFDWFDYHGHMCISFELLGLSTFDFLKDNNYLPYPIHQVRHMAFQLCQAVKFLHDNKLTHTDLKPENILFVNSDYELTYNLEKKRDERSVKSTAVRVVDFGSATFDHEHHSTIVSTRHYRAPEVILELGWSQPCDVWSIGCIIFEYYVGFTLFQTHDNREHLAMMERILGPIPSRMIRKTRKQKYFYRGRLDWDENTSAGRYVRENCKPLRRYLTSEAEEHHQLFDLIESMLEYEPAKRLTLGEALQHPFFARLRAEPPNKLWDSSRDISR
Chain of Glycogen synthase kinase-3 beta (Homo sapiens) (P49841 whole entry, looked up, canonical isoform): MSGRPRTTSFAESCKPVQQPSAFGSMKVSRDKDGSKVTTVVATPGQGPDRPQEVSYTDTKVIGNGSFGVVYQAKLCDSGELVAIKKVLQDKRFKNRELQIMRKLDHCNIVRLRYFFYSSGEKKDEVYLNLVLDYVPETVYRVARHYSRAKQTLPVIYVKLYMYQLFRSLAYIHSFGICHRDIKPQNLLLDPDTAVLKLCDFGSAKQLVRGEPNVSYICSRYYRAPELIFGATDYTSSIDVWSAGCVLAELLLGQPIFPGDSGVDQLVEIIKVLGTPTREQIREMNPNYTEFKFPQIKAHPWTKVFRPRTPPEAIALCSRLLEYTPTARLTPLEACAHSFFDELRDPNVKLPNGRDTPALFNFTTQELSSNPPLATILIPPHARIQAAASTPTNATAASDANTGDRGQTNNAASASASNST
Chain of Dual specificity protein kinase CLK1 (Homo sapiens) (P49759 whole entry, looked up): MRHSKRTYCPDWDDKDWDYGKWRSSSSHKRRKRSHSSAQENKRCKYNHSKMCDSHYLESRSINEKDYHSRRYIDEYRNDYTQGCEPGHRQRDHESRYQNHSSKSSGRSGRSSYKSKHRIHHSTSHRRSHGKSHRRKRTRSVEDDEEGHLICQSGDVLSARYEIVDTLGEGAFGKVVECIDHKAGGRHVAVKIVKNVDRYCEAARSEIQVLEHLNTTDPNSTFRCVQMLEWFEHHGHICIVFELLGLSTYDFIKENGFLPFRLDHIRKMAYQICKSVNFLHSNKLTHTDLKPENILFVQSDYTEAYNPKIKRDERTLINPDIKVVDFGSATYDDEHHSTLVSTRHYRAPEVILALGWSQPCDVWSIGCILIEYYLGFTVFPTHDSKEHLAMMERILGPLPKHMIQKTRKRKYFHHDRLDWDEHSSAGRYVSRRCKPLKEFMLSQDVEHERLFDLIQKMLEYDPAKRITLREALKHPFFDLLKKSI

On to `C=CC(=O)Nc1cccc(C(=O)c2sc(Nc3ccc(N4CCN(C)CC4)cc3)nc2N)c1`, for which, in test [1], the IC50 entry was “Nd(Insoluble)” and the Ki entry is given as “Nd(Insoluble)”. The inhibition result in [2] is “Active”. Moreover, in test [3], the inhibition entry was “Active”.
For the compound `O=c1ccc2cnc3ccc(-c4cn[nH]c4)cc3c2n1-c1ccc(F)cc1C(F)(F)F`, the inhibition result in test [4], in [5], in [8], in test [10], in test [2] and in test [11] was “Active” each time. The inhibition entry in test [12], in [13], in test [14] and in test [15] was “Active” each time. The 50% inhibitory concentration (IC50) in test [1] (read-out: IC50) was 532 nM. Further, the Ki in test [1] (read-out: Ki) came to 252 nM. Moreover, the fold change (FC) in test [6] came to 2. Moreover, the Activity in test [7] was 2%; in test [9], 0.05 to 0.1 µM.
In the case of `O=C(NCCN1CCOCC1)Nc1cccc(-c2ccc3nc(NC(=O)C4CC4)sc3n2)c1`, the inhibition entry in test [16], in test [17], in test [2], in test [18] and in test [3] was “Active” each time. The IC50 in test [1] (read-out: IC50) is 3500 nM. In test [1] (read-out: Ki), the Ki was 1680 nM. The Activity in test [7] is 11%; in test [9], > 20 µM.
For `COc1ccc(N)cc1-c1cnc(N)c(C(=O)c2cccnc2)n1`, the IC50 in test [1] (read-out: IC50) is > 6000 nM. Further, the inhibition constant Ki in [1] (read-out: Ki) is > 2800 nM. Further, the inhibition entry in test [19], in test [20], in test [21], in [2], in test [22] and in test [3] was “Active” in each case. For the same compound, the Activity in test [7] was 24%; in test [9] it was 5 to 10 µM.
In the case of `Nc1cccc(-c2cnc3[nH]cc(-c4cccnc4)c3c2)c1`, the IC50 in test [1] (read-out: IC50) came to 329 nM. In test [1] (read-out: Ki), the Ki came to 158 nM. Moreover, the Activity in test [7] was 0%; in [9], 5 to 10 µM. In addition, in test [2], the inhibition entry was “Dose-dependent effect”.
On to `NS(=O)(=O)c1ccc(-c2cnc3[nH]cc(-c4cccnc4)c3c2)cc1`, for which, in test [1] (read-out: IC50), the 50% inhibitory concentration (IC50) amounted to 216 nM. Also, the inhibition constant (Ki) in test [1] (read-out: Ki) came to 104 nM. Further, the Activity is 0% in [7] and 1 to 5 µM in [9]. Also, the inhibition entry in test [9] and in test [2] was “Dose-dependent effect” throughout.
For `C=CC(=O)Nc1ccc(C(=O)c2sc(Nc3ccc(N4CCN(C)CC4)cc3OC)nc2N)cc1`, in test [1] (read-out: IC50), the half-maximal inhibitory concentration (IC50) is 1200 nM. The inhibition constant Ki in test [1] (read-out: Ki) was found to be 575 nM. The Activity in test [7] is 4%. For the same compound, the result in test [9] was inactive. Also, in [2], the inhibition entry was “Dose-dependent effect”. Besides, in test [3], the inhibition result is “Active”.
In the case of `COc1cc(N2CCN(C)CC2)ccc1Nc1nc(N)c(C(=O)c2ccccc2)s1`, in test [1] (read-out: IC50), the concentration for half-maximal inhibition (IC50) came to 800 nM. Besides, the Ki in test [1] (read-out: Ki) worked out at 383 nM. Further, the values for the Activity in test [7] and in [9] were 1.3% and 10 to 20 µM, respectively. In [2], the inhibition result is “Dose-dependent effect”.
For `CN1C(=O)[C@H]2CCC[C@H]2N(C2CCCC2)c2nc(Nc3ccc(C(N)=O)cc3)ncc21`, the IC50 in test [1] (read-out: IC50) turned out to be 4200 nM. Moreover, the Ki in [1] (read-out: Ki) turned out to be 2020 nM. The inhibition entry in test [23], in test [2], in [25] and in test [26] was “Active” in each case. For the same compound, the Activity in test [7] was 15%; in test [9] it was 0.5 to 1 µM. Further, the fold change (FC) in test [24] came to 2.

A word on the IC50: it is the concentration needed to halve the response being measured. For orientation: Ki means a dissociation constant, usually derived from enzyme kinetics or from competition with a known ligand.
